{"source": "patent US20180021270A1", "about": "“METHODS FOR THE TREATMENT OF CANCER USING COENZYME Q10 IN COMBINATION WITH IMMUNE CHECKPOINT MODULATORS” (Berg LLC, priority 2016, published 2018)", "experiment": "Body weight of C57BL/6 mice with Pan02 tumors", "assay_type": "in vivo, mouse", "settings": "25, 50 or 100 mg/kg i.p. twice per day for 21 days", "experimental": "The body weight of C57BL/6 mice implanted with murine Pan02 pancreatic cancer cells and treated with Coenzyme Q10 was also evaluated. Tumors with mean volume of 100 mm^3 were treated twice per day with vehicle control or Coenzyme Q10 at 25, 50 or 100 mg/kg administered intraperitoneally for 21 days. Body weight was measured every two days for the first 5 days, and then twice per week."}
{"smiles": "COC1=C(OC)C(=O)C(C/C=C(\\C)CC/C=C(\\C)CC/C=C(\\C)CC/C=C(\\C)CC/C=C(\\C)CC/C=C(\\C)CC/C=C(\\C)CC/C=C(\\C)CC/C=C(\\C)CCC=C(C)C)=C(C)C1=O", "note": "[Coenzyme Q10]", "values": [{"measurement": "Effect on body weight", "result": "no significant effect"}]}
